# Values of other authors as cited in US8229872B2, “Modeling and control for highly variable and nonlinear systems” (priority 2007, dated 2012).
# Test system: receptors of the neuromuscular junction
# Settings: isolated cat anterior tibialis and sartorius muscles; ref [18]
smiles,measurement,value
COc1cc2c3cc1Oc1cc(ccc1O)C[C@@H]1c4c(cc(OC)c(O)c4Oc4ccc(cc4)C[C@@H]3N(C)CC2)CC[N+]1(C)C [tubocurarine],receptors that had to be blocked by the antagonist before block was noticeable,76±5%
same,receptors that had to be blocked for near complete blockade,92±16%
